By T/C is commonly meant the result in the treated group divided by that in the control group, in per cent.

In brackets after ≈: the same amount, converted by molar mass.

The text below walks through data of ChEMBL document CHEMBL1147298, “An antitumor principle from Suillus granulatus” (1989).

Common to all, as to format: functional
One assay concerns KB. Kind of assay: Cytotoxicity against human KB cells. As to conditions: read-out: ID50 (the source's name).
Assay [1] concerns P388. Briefly: Cytotoxicity against mouse P388 cells. The settings on record: read-out: ID50 (the source's name).
Assay [2] deals with P388. Briefly: In vivo antitumor activity against mouse P388 cells at 5 mg/kg, ip administered on 1,5 and 9 days relative to control. As to conditions: route intraperitoneal.
The subject of assay [3] is P388. Kind of assay: In vivo antitumor activity against mouse P388 cells at 10 mg/kg, ip administered on 1,5 and 9 days relative to control. As to conditions: route intraperitoneal.
Assay [4] can be described thus: Cytotoxicity against human NSCLC-N6 cells. As to conditions: read-out: ID50 (the source's name).

As to `CC(=O)Oc1ccc(OC(C)=O)c(OC(C)=O)c1C/C=C(\C)CC/C=C(\C)CC/C=C(\C)CCC=C(C)C`, the IC50 in the assay with KB amounted to 1.8 µg/mL (≈ 3.43 µM).
Regarding `CC(=O)Oc1ccc(O)c(O)c1C/C=C(\C)CC/C=C(\C)CC/C=C(\C)CCC=C(C)C` [TETRAPRENYLPHENOLSUILLIN], the IC50 came to 0.69 µg/mL (≈ 1.57 µM) in the assay with KB, 0.85 µg/mL (≈ 1.93 µM) in the assay on P388 [1] and 1.02 µg/mL (≈ 2.31 µM) in assay [4]. In addition, the results for the T/C in the assay on P388 [2] and with P388 [3] were 151% and 160%, respectively.
